Values quoted from earlier work in patent US6485708B1, “Products and methods for the remineralization and prevention of demineralization of teeth” (Church & Dwight Co. Inc., priority 1999, dated 2002).

Details: aqueous solution, pH about 7.0, about 25° C.

## O.O.O=P([O-])([O-])O.[Ca+2] [dicalcium phosphate dihydrate]
  calcium cations released: about 40 ppm
